Measurements published in publication PMC10269775, “Penicillin-Binding Protein Occupancy Dataset for 18 β-Lactams and 4 β-Lactamase Inhibitors in Neisseria gonorrhoeae” (Microbiology Spectrum, 2023).
Converted amounts (≈) assume the structure as drawn. Read-outs that look alike come from different tables or passages of the source.

Assays:
PBP3 [1] = target: T1, PBP3 (Neisseria gonorrhoeae, UniProt Q5FAB9); settings: read-out: IC50 PBP3; strain ATCC 19424; membrane preparation, 30 min drug then Bocillin FL
T1 sequence (Q5FAB9 22-469): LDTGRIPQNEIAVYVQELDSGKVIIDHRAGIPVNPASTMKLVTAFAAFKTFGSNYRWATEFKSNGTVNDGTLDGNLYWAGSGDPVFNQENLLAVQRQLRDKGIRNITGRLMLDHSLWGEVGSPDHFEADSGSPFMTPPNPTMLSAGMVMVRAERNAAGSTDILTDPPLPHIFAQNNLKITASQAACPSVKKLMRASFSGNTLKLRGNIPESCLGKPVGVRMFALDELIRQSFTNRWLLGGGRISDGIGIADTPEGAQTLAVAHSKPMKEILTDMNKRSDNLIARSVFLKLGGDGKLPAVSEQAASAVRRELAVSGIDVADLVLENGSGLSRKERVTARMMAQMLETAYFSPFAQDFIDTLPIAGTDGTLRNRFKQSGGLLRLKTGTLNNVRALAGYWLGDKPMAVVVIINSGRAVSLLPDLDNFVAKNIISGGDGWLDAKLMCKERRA

[2] = system: N. gonorrhoeae ATCC 19424; assay: MIC, CLSI broth microdilution; format: cell-based; settings: Neisseria gonorrhoeae
[3] = system: N. gonorrhoeae ATCC 49226; assay: MIC, CLSI broth microdilution; format: cell-based, Neisseria gonorrhoeae; settings: Neisseria gonorrhoeae
PBP1, PBP2 and PBP3 [4] = target: PBP1, PBP2 and PBP3 (Neisseria gonorrhoeae, UniProt P08149, A510V/A516G/A574V/F504L/H541N/I556V/I566V/K555Q/P552V); format: binding, Neisseria gonorrhoeae ATCC 49226; settings: read-out: min. IC50 (minimum observed IC50 value); strain ATCC 49226
PBP3 [5] = target: T1, PBP3; settings: read-out: IC50 PBP3; strain ATCC 49226; membrane preparation, 30 min drug then Bocillin FL
PBP1, PBP2 and PBP3 [6] = target: PBP1, PBP2 and PBP3 (Neisseria gonorrhoeae, UniProt P08149, H541N); format: binding, Neisseria gonorrhoeae ATCC 19424; settings: read-out: min. IC50 (minimum observed IC50 value); strain ATCC 19424
PBP2 [7] = target: PBP2 (Neisseria gonorrhoeae, UniProt P08149); settings: read-out: IC50 for PBP2; across both strains ATCC 19424 and ATCC 49226
PBP1 [8] = target: T2, PBP1 (Neisseria gonorrhoeae, UniProt O05131); assay: PBP-binding assay (Bocillin FL) in isolated membrane preparations; settings: strain ATCC 19424
T2 construct: endogenous in cells; host or cells: N. gonorrhoeae ATCC 19424, isolated membrane preparation
Description: (§1) Bacterial membranes were collected by ultracentrifugation.

PBP2 [9] = target: T3, PBP2 (Neisseria gonorrhoeae, UniProt P08149, A510V/A516G/A574V/F504L/H541N/I556V/I566V/K555Q/P552V); assay: biochemical; format: binding, Neisseria gonorrhoeae ATCC 49226
T3 construct: endogenous in cells; host or cells: N. gonorrhoeae ATCC 49226, isolated membrane preparation

PBP2 [10] = target: T4, PBP2 (Neisseria gonorrhoeae, UniProt P08149, H541N); assay: PBP-binding assay (Bocillin FL) in isolated membrane preparations; design: species or system Neisseria gonorrhoeae ATCC 19424
T4 construct: endogenous in cells; host or cells: N. gonorrhoeae ATCC 19424, isolated membrane preparation

PBP1 [11] = target: T5, PBP1 (Neisseria gonorrhoeae, UniProt O05131, A375T/F666S); assay: as above; design: species or system Neisseria gonorrhoeae ATCC 49226
T5 construct: endogenous in cells; host or cells: N. gonorrhoeae ATCC 49226, isolated membrane preparation
Description: as §1

PBP1, PBP2 and PBP3 [12] = target: T6, PBP1, PBP2 and PBP3 (Neisseria gonorrhoeae, UniProt Q5FAB9); format: binding, Neisseria gonorrhoeae ATCC 49226; settings: read-out: min. IC50 (minimum observed IC50 value); strain ATCC 49226
T6 sequence (Q5FAB9 22-469): T1 sequence (Q5FAB9 22-469)

PBP1, PBP2 and PBP3 [13] = format: binding, Neisseria gonorrhoeae ATCC 19424; settings: strain ATCC 19424
PBP1, PBP2 and PBP3 [14] = target: T6, PBP1, PBP2 and PBP3; format: binding, Neisseria gonorrhoeae ATCC 19424; settings: read-out: min. IC50 (minimum observed IC50 value); strain ATCC 19424
PBP1, PBP2 and PBP3 [15] = format: binding, Neisseria gonorrhoeae ATCC 49226; settings: strain ATCC 49226
N. gonorrhoeae = settings: single 2-g dose; isolates with an MIC above 0.5 mg/L; cited from earlier work
[16] = system: N. gonorrhoeae ATCC 19424 and ATCC 49226; assay: MIC, summary over both strains; format: cell-based, Neisseria gonorrhoeae; settings: compared with imipenem
[17] = ATCC19424, strain ATCC 19424, read-out: MIC
[18] = ATCC19424, strain ATCC 19424, read-out: MIC (Table S1)
[19] = ATCC49226, strain ATCC 49226, read-out: MIC
[20] = ATCC49226, strain ATCC 49226, read-out: MIC (Table S1)
[21] = membrane preparation, 30 min drug then Bocillin FL, read-out: IC50 PBP1 (converted)
[22] = IC50 PBP2, strain ATCC 49226, membrane preparation, 30 min drug then Bocillin FL
[23] = IC50 PBP2, strain ATCC 19424, membrane preparation, 30 min drug then Bocillin FL
[24] = IC50 PBP1, strain ATCC 49226, membrane preparation, 30 min drug then Bocillin FL
[25] = ATCC49226, read-out: MIC (Table S1)
[26] = IC50 PBP1 (Table S1), strain ATCC 49226

SMILES	IC50 (PBP3 [1])	MIC [2, 17]	MIC [2, 18]	MIC [3, 19]	MIC [3, 20]	IC50 (PBP3 [5])	IC50 (PBP1, PBP2 and PBP3 [6])	IC50 (PBP1 [8]; [21])	IC50 (PBP2 [9]; [22])	IC50 (PBP2 [10]; [23])	IC50 (PBP1 [11]; [24])	IC50 (PBP1, PBP2 and PBP3 [12])	MIC ([3]; ATCC49226)	MIC [3, 25]	IC50 (PBP1 [11]; [26])	also measured
CC(C)(O/N=C(\C(=O)N[C@@H]1C(=O)N2C(C(=O)[O-])=C(C[n+]3ccccc3)CS[C@H]12)c1csc(N)n1)C(=O)O [CAZ, ceftazidime]	> 3.66 µM	0.016 µg/mL (≈ 0.0293 µM)	0.016 µg/mL (≈ 0.0293 µM)	0.032 µg/mL (≈ 0.0585 µM)	0.032 µg/mL (≈ 0.0585 µM)	> 3.66 µM	0.0183 µM	> 3.66 µM	0.0183 µM	0.0183 µM	> 3.66 µM					IC50 (PBP1, PBP2 and PBP3 [4]): 0.0183 µM; IC50 (PBP2 [7]): 0.0183 µM
CC1(C)S[C@@H]2[C@H](NC(=O)Cc3ccccc3)C(=O)N2[C@H]1C(=O)O [PenG, penicillin G]	0.0598 µM	0.064 µg/mL (≈ 0.191 µM)	0.063 µg/mL (≈ 0.188 µM)	0.125 µg/mL (≈ 0.374 µM)	0.125 µg/mL (≈ 0.374 µM)	0.0299 µM		5.65 µM	0.778 µM	0.15 µM	> 5.98 µM	0.0299 µM				min. IC50 (minimum observed IC50 value) (PBP1, PBP2 and PBP3 [13]): 0.02 µg/mL
NC(=O)[C@@H]1CC[C@@H]2CN1C(=O)N2OS(=O)(=O)O [AVI, avibactam]	8.78 µM		128 µg/mL (≈ 483 µM)			20.4 µM		> 1930 µM	> 965 µM	441 µM	> 965 µM	20.4 µM	> 256 µg/mL	512 µg/mL (≈ 1930 µM)	> 1930 µM	IC50 (PBP1, PBP2 and PBP3 [14]): 8.78 µM; IC50 (PBP2 [9]; IC50 PBP2 (Table S1), strain ATCC 49226): > 1930 µM; IC50 (PBP2 [10]; IC50 PBP2 (Table S1), strain ATCC 19424): 442 µM
CC1(C)[C@H](C(=O)O)N2C(=O)C[C@H]2S1(=O)=O [SUL, sulbactam]	39.9 µM					27.3 µM	5.06 µM	236 µM	25.8 µM	5.06 µM	870 µM		4 µg/mL (≈ 17.1 µM)	4 µg/mL (≈ 17.1 µM)	871 µM	MIC ([2]; ATCC19424): 0.25 µg/mL (≈ 1.07 µM); MIC ([2]; ATCC19424, read-out: MIC (Table S1)): 0.25 µg/mL (≈ 1.07 µM); min. IC50 (minimum observed IC50 value) (PBP1, PBP2 and PBP3 [15]): 6.02 µg/mL; IC50 (PBP1 [8]; read-out: IC50 PBP1 (Table S1) (converted)): 238 µM
C[C@H]1[C@H](NC(=O)/C(=N\OC(C)(C)C(=O)O)c2csc(N)n2)C(=O)N1S(=O)(=O)O [ATM, aztreonam]		0.032 µg/mL (≈ 0.0735 µM)	0.032 µg/mL (≈ 0.0735 µM)		0.25 µg/mL (≈ 0.574 µM)			> 4.59 µM			> 4.59 µM		0.125 µg/mL (≈ 0.287 µM)			cure rate (N. gonorrhoeae): 50%
C[C@@H](O)[C@H]1C(=O)N2C(C(=O)O)=C(S[C@@H]3CN[C@H](C(=O)Nc4cccc(C(=O)O)c4)C3)[C@H](C)[C@H]12 [ETP, ertapenem]		0.004 µg/mL (≈ 0.00841 µM)	0.004 µg/mL (≈ 0.00841 µM)	0.008 µg/mL (≈ 0.0168 µM)	0.008 µg/mL (≈ 0.0168 µM)			1.01 µM	0.021 µM	0.0841 µM	1.2 µM					times more active [16]: 8 times
